Measured values reported in US20090247599A1, “METHODS OF TREATING CELL PROLIFERATIVE DISORDERS USING A COMPRESSED TEMOZOLOMIDE DOSING SCHEDULE” (Schering Corporation, priority 2005, published 2009).

What was measured:
[1] = test system: U373 human glioma xenograft tumors; assay: U373 xenograft tumor growth in nude mice; format: in vivo; settings: i.p.
Procedure: (§1) In brief, female athymic nude mice or female SCID mice (4-6 week old) from Charles River Laboratories were maintained in a VAF-barrier facility. Animal procedures were performed in accordance with the rules set forth in the N.I.H. guide for the care and use of laboratory animals.
(§2) DAOY human medulloblastoma cells (5×10^6), U373 human glioma cells (5×10^6), LOX human melanoma cells (5×10^5), and A375 human melanoma cells (5×10^6) were inoculated subcutaneously in the right flank of the animal (LOX in SCID mice; DAOY, U373, and A375 in nude mice). To facilitate in vivo growth, Matrigel was mixed with DAOY and A375 cells (50%) before inoculation. When tumor volumes were approximately 100 mm^3, animals were randomized and grouped (n=10 LOX, DAOY, and A375; n=9 U373). Tumor volumes and body weight were measured twice weekly using Labcat™ computer application (Innovative Programming Associates, N.J.). Tumor volumes were calculated by the formula (W×L×H)×π×⅙. TMZ was administered by intraperitoneal injections with 20% HPβCD (containing 1% DMSO) as vehicle.
Mice bearing xenograft tumors of U373 human glioma cells, a high MGMT level cell line, were treated with TMZ for 5 consecutive days (day 1 through day 5) over a cycle that is at least a 28-day cycle. […]

[2] = test system: LOX human melanoma xenograft tumors; assay: LOX xenograft tumor growth in SCID mice; format: in vivo; settings: i.p., 72 mg/kg total dose
Procedure: as §1, §2
Mice bearing xenograft tumors of LOX human melanoma cells, a low MGMT level cell line, were treated with TMZ using two different schedules. The same total dose was administered evenly divided over the course of either: (i) 4 or (ii) 12 days. […]

SMILES: Cn1nnc2c(C(N)=O)ncn2c1=O [TMZ, 3,4-dihydro-3-methyl-4-oxoimidazo[5,1-d]-as-tetrazine-8-carboxamide]
- TGI ([1]; 35 mg/kg for 5 consecutive days (175 mg/kg total)): 100%
- TGI ([1]; 70 mg/kg for 5 consecutive days (350 mg/kg total)): 113%
- TGI ([2]; 4-day treatment schedule (Day 1-4)): 88%
- TGI ([2]; 12-day schedule (Day 1-12)): 50%
